Experimental data from article PMC8523698, “Preclinical characterization of an intravenous coronavirus 3CL protease inhibitor for the potential treatment of COVID19” (Nature Communications, 2021).
Several values for one entry are separate records, joined by “and”; a condition that tells them apart may be missing. Equal values may be shown once. Read-outs that look alike come from different tables or passages of the source.

Experiments:
CYP2C19 = CYP2C19 (Homo sapiens, UniProt P33261); assay: Reversible CYP inhibition in human liver microsomes; settings: for activity at 0.214 µM: CYP 2C19, 0.214 µM
CYP2C19, sequence (P33261 whole entry): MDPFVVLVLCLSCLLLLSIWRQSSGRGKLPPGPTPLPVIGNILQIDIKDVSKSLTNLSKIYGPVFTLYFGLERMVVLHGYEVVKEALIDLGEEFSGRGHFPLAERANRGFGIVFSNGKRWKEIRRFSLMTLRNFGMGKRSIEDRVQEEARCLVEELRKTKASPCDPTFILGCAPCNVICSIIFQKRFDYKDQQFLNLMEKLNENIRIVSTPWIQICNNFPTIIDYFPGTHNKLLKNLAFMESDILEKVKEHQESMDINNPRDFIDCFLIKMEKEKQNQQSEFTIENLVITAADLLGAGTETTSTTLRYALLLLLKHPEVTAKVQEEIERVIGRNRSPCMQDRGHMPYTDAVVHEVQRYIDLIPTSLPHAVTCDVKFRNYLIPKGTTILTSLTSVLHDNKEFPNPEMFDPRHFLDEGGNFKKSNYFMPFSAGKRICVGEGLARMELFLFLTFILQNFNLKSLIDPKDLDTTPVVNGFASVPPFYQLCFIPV

HCoV-229E = assay: Viral CPE assay in MRC-5 cells (CellTiter Glo); assay type: cell-based; settings: Human coronavirus 229E
[1] = Plasma protein binding by equilibrium dialysis; settings: for fraction unbound at 6 h, 5 uM / fraction unbound at 6 h: plasma
OAT3 = biological target: T1, OAT3 (Homo sapiens, UniProt Q8TCC7); assay: Transporter inhibition using transfected HEK293 cells
T1 sequence (Q8TCC7 1-542): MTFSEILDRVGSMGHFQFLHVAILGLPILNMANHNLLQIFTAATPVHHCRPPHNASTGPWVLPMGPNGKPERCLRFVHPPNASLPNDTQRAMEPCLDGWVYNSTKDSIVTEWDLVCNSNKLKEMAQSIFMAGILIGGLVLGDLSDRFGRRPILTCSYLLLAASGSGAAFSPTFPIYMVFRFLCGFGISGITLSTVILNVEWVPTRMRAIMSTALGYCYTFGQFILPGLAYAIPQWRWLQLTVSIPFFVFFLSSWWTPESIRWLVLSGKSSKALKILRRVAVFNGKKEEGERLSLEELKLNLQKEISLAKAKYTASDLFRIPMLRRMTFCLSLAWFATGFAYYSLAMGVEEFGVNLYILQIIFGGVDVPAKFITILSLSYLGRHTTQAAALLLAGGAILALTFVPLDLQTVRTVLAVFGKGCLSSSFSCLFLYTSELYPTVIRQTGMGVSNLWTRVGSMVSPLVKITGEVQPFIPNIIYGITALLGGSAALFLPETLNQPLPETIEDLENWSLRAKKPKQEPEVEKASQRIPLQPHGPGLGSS

COc1cccc2[nH]c(C(=O)N[C@@H](CC(C)C)C(=O)N[C@@H](C[C@@H]3CCNC3=O)C(=O)CO)cc12 [PF-00835231]
Percent of Control Activity (CYP2C19; CYP 2C19, 0.979 µM, Zero-Minute Preincubation, 0.979 µM): 91.0% and 93.6%
Percent of Control Activity (CYP2C19; CYP 2C19, 2.09 µM, 30-Minute Preincubation, 2.09 µM): 78.6% and 76.3%
Percent of Control Activity (CYP2C19; CYP 2C19, 2.09 µM, Zero-Minute Preincubation, 2.09 µM): 89.4% and 88.4%
Percent of Control Activity (CYP2C19; CYP 2C19, 4.48 µM, 30-Minute Preincubation, 4.48 µM): 87.7% and 90.1%
Percent of Control Activity (CYP2C19; CYP 2C19, 4.48 µM, Zero-Minute Preincubation, 4.48 µM): 88.9% and 87.5%
Percent of Control Activity (CYP2C19; CYP 2C19, 20.5 µM, 30-Minute Preincubation, 20.5 µM): 82.9% and 81.5%
Percent of Control Activity (CYP2C19; CYP 2C19, 20.5 µM, Zero-Minute Preincubation, 20.5 µM): 89.8% and 81.5%
Percent of Control Activity (CYP2C19; CYP 2C19, 43.8 µM, 30-Minute Preincubation, 43.8 µM): 68.7%
Percent of Control Activity (CYP2C19; CYP 2C19, 43.8 µM, Zero-Minute Preincubation, 43.8 µM): 83.4% and 80.9%
Percent of Control Activity (CYP2C19; CYP 2C19, 93.5 µM, 30-Minute Preincubation, 93.5 µM): 66.6% and 74.6%
Percent of Control Activity (CYP2C19; CYP 2C19, 93.5 µM, Zero-Minute Preincubation, 93.5 µM): 77.3%
Percent of Control Activity (CYP2C19; CYP 2C19, 200 µM, 30-Minute Preincubation, 200 µM): 62.1% and 65.9%
Percent of Control Activity (CYP2C19; CYP 2C19, 200 µM, Zero-Minute Preincubation, 200 µM): 65.6% and 68.4%
IC50 (CYP2C19; human, microsomes, pH 7.4): > 200000 nM
activity at 0.1 µM (CYP2C19; human, microsomes, pH 7.4, Percent of Control Activity, CYP 2C19, 0.1 µM, Zero-Minute Preincubation): 95.2%
activity at 0.214 µM (CYP2C19; human, microsomes, pH 7.4, Percent of Control Activity, 30-Minute Preincubation): 99%
activity at 0.214 µM (CYP2C19; human, microsomes, pH 7.4, Percent of Control Activity, Zero-Minute Preincubation): 92.9%
activity at 0.979 µM (CYP2C19; human, microsomes, pH 7.4, Percent of Control Activity, CYP 2C19, 0.979 µM, Zero-Minute Preincubation): 81.3%
activity at 2.09 µM (CYP2C19; human, microsomes, pH 7.4, Percent of Control Activity, CYP 2C19, 2.09 µM, 30-Minute Preincubation): 79.9%
activity at 2.09 µM (CYP2C19; human, microsomes, pH 7.4, Percent of Control Activity, CYP 2C19, 2.09 µM, Zero-Minute Preincubation): 85.8%
activity at 4.48 µM (CYP2C19; human, microsomes, pH 7.4, Percent of Control Activity, CYP 2C19, 4.48 µM, 30-Minute Preincubation): 88.7%
activity at 4.48 µM (CYP2C19; human, microsomes, pH 7.4, Percent of Control Activity, CYP 2C19, 4.48 µM, Zero-Minute Preincubation): 83.6%
activity at 20.5 µM (CYP2C19; human, microsomes, pH 7.4, Percent of Control Activity, CYP 2C19, 20.5 µM, 30-Minute Preincubation): 83.9%
activity at 20.5 µM (CYP2C19; human, microsomes, pH 7.4, Percent of Control Activity, CYP 2C19, 20.5 µM, Zero-Minute Preincubation): 86.2%
activity at 43.8 µM (CYP2C19; human, microsomes, pH 7.4, Percent of Control Activity, CYP 2C19, 43.8 µM, 30-Minute Preincubation): 81.3%
activity at 43.8 µM (CYP2C19; human, microsomes, pH 7.4, Percent of Control Activity, CYP 2C19, 43.8 µM, Zero-Minute Preincubation): 85%
activity at 93.5 µM (CYP2C19; human, microsomes, pH 7.4, Percent of Control Activity, CYP 2C19, 93.5 µM, 30-Minute Preincubation): 74.5%
activity at 93.5 µM (CYP2C19; human, microsomes, pH 7.4, Percent of Control Activity, CYP 2C19, 93.5 µM, Zero-Minute Preincubation): 76.8%
activity at 200 µM (CYP2C19; human, microsomes, pH 7.4, Percent of Control Activity, CYP 2C19, 200 µM, 30-Minute Preincubation): 64.9%
activity at 200 µM (CYP2C19; human, microsomes, pH 7.4, Percent of Control Activity, CYP 2C19, 200 µM, Zero-Minute Preincubation): 69.2%
EC50 (HCoV-229E; MRC5, MRC-5, minus efflux inhibitor, individual determinations by date): 80.6 nM
EC50 (HCoV-229E; MRC5, read-out: EC50 GeoMean (95% CI), efflux inhibitor CP-100356: 0): 69 nM
EC50 (HCoV-229E; MRC5, read-out: EC50 GeoMean (95% CI), efflux inhibitor CP-100356: 0.5 μM): 80 nM
Individual fraction unbound ([1]; Monkey Cynomologous plasma, 5.0 uM, replicates Day 1-3): 0.429 and 0.445 and 0.467 and 0.489 and 0.396 and 0.428 and 0.46 and 0.501 and 0.390
fraction unbound at 6 h, 5 uM ([1]; cynomolgus monkey, pH 7.4, Individual fraction unbound, Monkey Cynomologous plasma, 5.0 uM, replicates Day 1-3): 0.44
fraction unbound at 6 h, 5 uM ([1]; monkey, pH 7.4, Fraction unbound, Geomean, Monkey plasma, 5.0 uM, n 12): 0.441
fraction unbound at 6 h ([1]; monkey, pH 7.4, Plasma fu, Vdss input): 0.441
fraction unbound at 6 h ([1]; monkey, pH 7.4, Unbound fraction fu (%CV), monkey plasma): 0.441
fraction unbound at 6 h, 5 uM ([1]; monkey, pH 7.4, fraction unbound Geomean, monkey plasma, 5.0 uM, n=12): 0.441
IC50 (OAT3): > 300000 nM
IC50 (OAT3; human, HEK293 cells transfected with OAT3, pH 7.4, probe [3H] estrone-3-sulfate (0.1 µM)): > 20000 nM
